The subject of assay [1] is phenylephrine-induced contractions of rabbit aorta. The note with it: cited from earlier work.
Another assay concerns MCF7-LTED cells. As to the kind of experiment: MTT cell viability assay. The assay is classed as cell-based. The procedure: (§1) MCF7-LTED cells were established in phenol red-free Roswell Park Memorial Institute medium containing 10% dextran-coated charcoal-stripped fetal bovine serum. Cellular viability was evaluated using a standard methylthiazol tetrazolium (MTT; Sigma-Aldrich) assay. The results of these assays are expressed relative to vehicle treated controls and to the original time point.
MCF7 and MCF7-LTED cells were plated in 384-well microtiter plates and five compound dilutions (1 nM to 10 µM final concentration) from the LOPAC library (1,258 compounds, Sigma-Aldrich) were added to the cultures. Cell viability was assessed after 72 hours using MTT-based assays and the EnVision spectrofluorometer (Perkin-Elmer). The screen was performed in triplicate. The quality of the screen (Z'-factor > 0.5 for all screens) and the data was analyzed using the cell HTS2 module in the ScreenSaver database. The data was normalized between 0 and 1 using positive (1 µM phenylarsene oxide, Sigma-Aldrich) and negative (0.1% dimethyl sulfoxide, Merck) controls for cell viability. For hit selection, the difference between the normalize percentage inhibition (NPI) in MCF7 and MCF7-LTED cells was calculated by subtraction [ΔNPI = NPI(MCF7-LTED) - NPI(MCF7)] and the differentials were clustered with the MeV software package using the Cluster Affinity Search method with the Euclidean distance metric (threshold of 0.7).
Acquired resistance to aromatase inhibitors in postmenopausal women can be modeled in long-term estrogen-deprived (LTED) MCF7 cells. Using this model, a cell-based chemical compound screen was carried out to identify potential therapeutic strategies that could prevent and/or overcome resistance. More than 1,200 compounds were assessed for their differential effect on the viability (as defined by MTT-based assays) of MCF7-LTED cells relative to the parental MCF7 cells.
Having identified the comparative inhibitory effect of YC-1 on the viability of MCF7-LTED cells, we evaluated the effect of this compound on a collection of breast cancer cell lines. […]
On the technique in general: Tetrazolium assays rely on reduction of a dye to a coloured formazan, in cell work by metabolically active cells.

The subject of another assay is platelet aggregation. The note with it: cited from earlier work.
Assay [2] relates to phospho-serine 235/236 ribosomal S6 protein. As to the kind of experiment: Phospho-S6 after YC-1 exposure of MCF7 cells. The assay is classed as cell-based. The note with it: MCF7 cells exposed to YC-1. The text has this: (§2) To determine the YC-1 mechanism of action that may be selective in models of acquired resistance, the subcellular localization of ERα was first examined. Although ERα levels and localization were altered by YC-1 treatment, no substantial differences were observed between MCF7-LTED and MCF7 cells. Subsequently, whole-genome expression data was obtained and analyzed for the basal and YC-1-exposed conditions in both cell lines. Consistent with the results described above, expression of the ribosome pathway clearly distinguished MCF7-LTED and MCF7 cells in basal conditions. […] In contrast, exposure of MCF7-LTED cells to YC-1 led to alteration of the cell cycle pathway and a decrease in a central positive regulator of the cell cycle, E2F1.

The next assay deals with ERα. As to the kind of experiment: Subcellular localization of ERα after YC-1 treatment. Format: cell-based. The note with it: MCF7-LTED and MCF7 cells; no substantial differences between the two.
Source text: as §2

Another assay deals with E2F1. As to the kind of experiment: E2F1 after YC-1 exposure of MCF7-LTED cells. Format: cell-based. The note with it: MCF7-LTED cells exposed to YC-1.
Source text: as §2

The test system of the next assay is MCF7 cells. Put plainly: MTT cell viability assay. Format: cell-based. The note with it: Homo sapiens, MCF7 cell line. On the procedure:
as §1
[…] Cell viability was assessed after 72 hours using MTT-based assays and the EnVision spectrofluorometer (Perkin-Elmer). The screen was performed in triplicate. The quality of the screen (Z'-factor > 0.5 for all screens) and the data was analyzed using the cell HTS2 module in the ScreenSaver database. […] For hit selection, the difference between the normalize percentage inhibition (NPI) in MCF7 and MCF7-LTED cells was calculated by subtraction [ΔNPI = NPI(MCF7-LTED) - NPI(MCF7)] and the differentials were clustered with the MeV software package using the Cluster Affinity Search method with the Euclidean distance metric (threshold of 0.7).
Acquired resistance to aromatase inhibitors in postmenopausal women can be modeled in long-term estrogen-deprived (LTED) MCF7 cells. […] More than 1,200 compounds were assessed for their differential effect on the viability (as defined by MTT-based assays) of MCF7-LTED cells relative to the parental MCF7 cells. […]

In a further assay the test system is T47D. Put plainly: MTT cell viability assay. Format: cell-based. The note with it: Homo sapiens, T47D cell line. On the procedure: as §1
(§3) Having identified the comparative inhibitory effect of YC-1 on the viability of MCF7-LTED cells, we evaluated the effect of this compound on a collection of breast cancer cell lines. […] For the remaining sensitive cell lines (as defined by an IC50 < 10 µM threshold), no associations with ERα and/or progesterone receptor (PR) and/or human epidermal growth factor receptor 2 (HER2) were observed (Table 1). Table 1. YC-1 IC50 (µM) values in breast cancer cell lines

The subject of the next assay is BT474. Put plainly: MTT cell viability assay. Format: cell-based. The note with it: Homo sapiens, BT-474, BT474 cell line. The procedure:
as §1, §3

The test system of another assay is MDA-MB-231. As to the kind of experiment: MTT cell viability assay. The assay is classed as cell-based. The note with it: Homo sapiens, MDA-MB-231 cell line. On the procedure: as §1, §3
A further assay relates to SKBR3. Put plainly: MTT cell viability assay. The note with it: Homo sapiens, SK-BR-3, SKBR3 cell line. The assay is classed as cell-based. On the procedure:
as §1, §3

The test system of the next assay is MCF7-HER2. Put plainly: MTT cell viability assay. Format: cell-based. The note with it: MCF7-HER2 cell line. On the procedure:
as §1, §3

The subject of the next assay is HCC1937. Put plainly: MTT cell viability assay. The note with it: Homo sapiens, HCC1937 cell line. The assay is classed as cell-based. The procedure: as §1, §3
A further assay relates to ZR751. Put plainly: MTT cell viability assay. The assay is classed as cell-based. The note with it: Homo sapiens, ZR-75-1, ZR751 cell line. The procedure:
as §1, §3

Another assay has as its system MDA-MB-453. Put plainly: MTT cell viability assay. The note with it: Homo sapiens, MDA-MB-453 cell line. The assay is classed as cell-based. The procedure: as §1, §3
In another assay the test system is MDA-MB-468. Put plainly: MTT cell viability assay. The assay is classed as cell-based. The note with it: Homo sapiens, MDA-MB-468 cell line. On the procedure: as §1, §3
The subject of another assay is MCF10A. Put plainly: MTT cell viability assay. Format: cell-based. The note with it: Homo sapiens, MCF-10A, MCF10A cell line. On the procedure: as §1, §3
Another assay deals with AU565. As to the kind of experiment: MTT cell viability assay. Format: cell-based. The note with it: Homo sapiens, AU565 cell line. On the procedure: as §1, §3

By IC50 is commonly meant the concentration at which inhibition is half-maximal.

`Nc1nc(-c2nn(Cc3ccccc3F)c3ncccc23)ncc1C1CC1` [BAY 41-2272]: the figures for the IC50 (in assay [1]; in the assay with platelet aggregation) were 0.3 µM and 0.036 µM, respectively. Also, the “differences in cell viability” value with MCF7-LTED cells (MCF7-LTED versus MCF7 cells, validation, Fig. 1C) is “differences in cell viability, although of lesser magnitude”.

As for `COc1cc2ncnc(Nc3ccc(F)c(Cl)c3)c2cc1OCCCN1CCOCC1` [Gefitinib, reference compound], in the assay with MCF7-LTED cells (MCF7-LTED versus MCF7 cells, Fig. 1D), the “differences in the growth rate of the two cellular models” value is “No differences”.

Regarding `OCc1ccc(-c2nn(Cc3ccccc3)c3ccccc23)o1` [YC-1, 3-(5'-hydroxymethyl-2'-furyl)-1-benzylindazole], the “phospho-serine 235/236 ribosomal S6 protein” value in assay [2] is on record as “decrease”. The “ERα levels and localization” value in the assay on ERα is given as “altered”. The IC50 in the assay with MCF7-LTED cells (MCF7-LTED cell line (long-term estrogen-deprived), cell viability) came to 4.9 µM; in the assay on MCF7 cells it was 131 µM; with T47D, 8.2 µM; in the assay with BT474, 319 µM; in the assay with MDA-MB-231 it was 4480 µM; with SKBR3, 1.6 µM. Moreover, the IC50 in the assay on MCF7-HER2 stood at 187 µM; with HCC1937, 253 µM; in the assay on ZR751, 0.3 µM; with MDA-MB-453 it was 250 µM; in the assay with MDA-MB-468, 49 µM; in the assay on MCF10A, 99 µM. In the assay with AU565, this molecule had an IC50 of 1.3 µM. Further, the E2F1 result in the assay on E2F1 is “decrease”.

These data come from patent publication EP2821071A1, “Compounds for breast cancer treatment” (Institut d'Investigació Biomèdica de Bellvitge (IDIBELL), priority 2013, dated 2015).
